According to patent publication US9458110B2, “Phenylpyrazole derivatives as potent ROCK1 and ROCK2 inhibitors” (BRISTOL-MYERS SQUIBB COMPANY, priority 2013, dated 2016):

How the values were obtained:
ROCK2 = ROCK2 (Homo sapiens (Human), UniProt O75116); test: ROCK assay (Caliper LABCHIP peptide phosphorylation), ROCK2; type: biochemical; conditions: 5 μM ATP, 1.5 μM peptide substrate;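 further: reaction stopped with EDTA, then phosphorylated and unphosphorylated peptide resolved by microfluidic electrophoresis, kinase inhibition computed at each compound concentration in dose-response series, DMSO under 2%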
ROCK1 = ROCK1 (Homo sapiens (Human), UniProt Q13464); test: ROCK assay (Caliper LABCHIP peptide phosphorylation), ROCK1; type: biochemical; conditions: 5 μM ATP, 1.5 μM peptide substrate;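 further: Read-out is separation of phosphorylated from unphosphorylated peptide, with kinase activity inhibition computed at every concentration of a dose-response series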
ROCK1, sequence (Q13464 whole entry, species assumed): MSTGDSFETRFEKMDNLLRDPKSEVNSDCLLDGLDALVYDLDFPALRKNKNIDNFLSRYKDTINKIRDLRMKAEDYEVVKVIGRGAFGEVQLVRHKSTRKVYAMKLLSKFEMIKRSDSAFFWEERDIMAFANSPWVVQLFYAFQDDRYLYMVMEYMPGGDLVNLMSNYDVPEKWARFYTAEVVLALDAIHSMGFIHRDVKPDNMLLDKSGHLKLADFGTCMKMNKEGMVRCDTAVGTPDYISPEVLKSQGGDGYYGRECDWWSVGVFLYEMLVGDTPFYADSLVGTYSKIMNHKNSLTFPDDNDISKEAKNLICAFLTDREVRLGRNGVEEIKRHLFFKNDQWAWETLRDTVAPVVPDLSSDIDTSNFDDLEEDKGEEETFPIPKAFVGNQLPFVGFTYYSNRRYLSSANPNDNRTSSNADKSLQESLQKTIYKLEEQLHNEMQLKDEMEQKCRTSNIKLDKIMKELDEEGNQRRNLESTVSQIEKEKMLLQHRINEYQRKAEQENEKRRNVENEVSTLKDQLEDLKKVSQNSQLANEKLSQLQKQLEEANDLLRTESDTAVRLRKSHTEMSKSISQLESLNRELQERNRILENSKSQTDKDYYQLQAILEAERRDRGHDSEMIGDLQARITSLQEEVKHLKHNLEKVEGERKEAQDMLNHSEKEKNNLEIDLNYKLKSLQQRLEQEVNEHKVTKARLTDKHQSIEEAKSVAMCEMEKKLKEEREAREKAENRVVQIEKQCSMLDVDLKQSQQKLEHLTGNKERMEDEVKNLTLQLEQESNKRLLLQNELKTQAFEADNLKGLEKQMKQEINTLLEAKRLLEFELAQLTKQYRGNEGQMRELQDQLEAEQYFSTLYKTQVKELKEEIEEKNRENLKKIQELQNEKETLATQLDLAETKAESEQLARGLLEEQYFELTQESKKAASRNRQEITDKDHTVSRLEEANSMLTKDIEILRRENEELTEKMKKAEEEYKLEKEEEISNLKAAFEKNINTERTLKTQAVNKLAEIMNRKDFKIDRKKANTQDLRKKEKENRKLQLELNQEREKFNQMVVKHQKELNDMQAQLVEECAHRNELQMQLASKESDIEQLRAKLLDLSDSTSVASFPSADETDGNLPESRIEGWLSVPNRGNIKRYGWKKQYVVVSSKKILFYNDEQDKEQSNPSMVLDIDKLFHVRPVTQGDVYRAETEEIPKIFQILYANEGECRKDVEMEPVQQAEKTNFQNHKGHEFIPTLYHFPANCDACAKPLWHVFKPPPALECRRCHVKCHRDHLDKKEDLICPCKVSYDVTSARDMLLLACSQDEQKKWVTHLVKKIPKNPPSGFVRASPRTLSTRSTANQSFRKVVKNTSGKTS

ROCK2, sequence (O75116 whole entry, species assumed): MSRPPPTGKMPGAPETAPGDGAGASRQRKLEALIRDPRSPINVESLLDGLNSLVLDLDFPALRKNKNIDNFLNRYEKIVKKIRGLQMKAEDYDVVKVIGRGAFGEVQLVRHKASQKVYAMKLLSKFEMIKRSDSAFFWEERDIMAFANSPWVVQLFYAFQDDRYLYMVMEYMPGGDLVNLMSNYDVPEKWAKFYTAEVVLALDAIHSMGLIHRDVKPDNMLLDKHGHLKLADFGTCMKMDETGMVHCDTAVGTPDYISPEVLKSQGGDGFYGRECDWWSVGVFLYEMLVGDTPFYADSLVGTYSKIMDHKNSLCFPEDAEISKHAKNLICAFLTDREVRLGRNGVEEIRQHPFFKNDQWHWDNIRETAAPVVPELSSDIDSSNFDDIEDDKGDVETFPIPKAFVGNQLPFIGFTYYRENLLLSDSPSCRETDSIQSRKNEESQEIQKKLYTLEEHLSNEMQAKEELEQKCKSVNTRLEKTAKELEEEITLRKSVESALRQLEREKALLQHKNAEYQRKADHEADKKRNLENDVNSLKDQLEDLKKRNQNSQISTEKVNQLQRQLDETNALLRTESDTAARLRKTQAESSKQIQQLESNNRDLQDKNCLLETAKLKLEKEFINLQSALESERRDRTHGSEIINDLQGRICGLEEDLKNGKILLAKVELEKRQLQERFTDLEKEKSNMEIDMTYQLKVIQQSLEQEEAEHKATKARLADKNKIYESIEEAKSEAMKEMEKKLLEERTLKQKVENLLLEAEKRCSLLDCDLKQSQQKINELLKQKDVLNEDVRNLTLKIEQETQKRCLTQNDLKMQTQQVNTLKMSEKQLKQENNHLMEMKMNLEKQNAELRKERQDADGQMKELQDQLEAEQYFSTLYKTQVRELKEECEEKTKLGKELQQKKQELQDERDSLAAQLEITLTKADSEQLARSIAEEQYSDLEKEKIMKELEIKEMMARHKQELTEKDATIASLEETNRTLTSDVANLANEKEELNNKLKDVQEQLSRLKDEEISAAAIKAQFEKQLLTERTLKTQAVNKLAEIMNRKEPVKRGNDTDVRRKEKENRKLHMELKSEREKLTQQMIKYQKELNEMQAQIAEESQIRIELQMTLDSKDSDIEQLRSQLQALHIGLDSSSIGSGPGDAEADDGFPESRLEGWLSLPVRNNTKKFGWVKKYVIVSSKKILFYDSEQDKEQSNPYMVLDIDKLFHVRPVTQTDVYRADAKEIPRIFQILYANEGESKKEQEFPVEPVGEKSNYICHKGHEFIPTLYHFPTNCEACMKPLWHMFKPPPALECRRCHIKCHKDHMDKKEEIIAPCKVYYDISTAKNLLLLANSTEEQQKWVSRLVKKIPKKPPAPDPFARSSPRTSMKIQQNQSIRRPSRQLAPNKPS

COc1cc(-c2cn[nH]c2)ccc1C(=O)NCc1cccc(C(=O)NC2CCN(C)CC2)c1 [Example 249, 2-methoxy-N-({3-[(1-methylpiperidin-4-yl)carbamoyl]phenyl}methyl)-4-(1H-pyrazol-4-yl)benzamide]
IC50 (ROCK2): 0.36 nM
IC50 (ROCK1): 1.24 nM

COc1cc(C(=O)NCc2cccc(C(N)=O)c2)ccc1-c1cn[nH]c1 [Example 250, N-[(3-carbamoylphenyl)methyl]-3-methoxy-4-(1H-pyrazol-4-yl)benzamide]
IC50 (ROCK2): 0.72 nM
IC50 (ROCK1): 10 nM

Cc1cc(C(=O)N[C@H](CC(=O)O)c2ccccc2)ccc1-c1cn[nH]c1 [Example 251, (3R)-3-{[3-Methyl-4-(1H-pyrazol-4-yl)phenyl]formamido}-3-phenylpropanoic acid]
IC50 (ROCK2): 33.7 nM
IC50 (ROCK1): 45.7 nM

Cc1cc(C(=O)N[C@H](CC(=O)NCC(C)(C)O)c2ccccc2)ccc1-c1cn[nH]c1 [Example 253, (3R)-N-(2-Hydroxy-2-methylpropyl)-3-{[3-methyl-4-(1H-pyrazol-4-yl)phenyl]formamido}-3-phenylpropanamide]
IC50 (ROCK2): 255 nM
IC50 (ROCK1): 99 nM

CC(=O)NC[C@@H](NC(=O)c1ccc(-c2cn[nH]c2)c(C)c1)c1ccccc1 [Example 255, N-[(2S)-2-{[3-Methyl-4-(1H-pyrazol-4-yl)phenyl]formamido}-2-phenylethyl]acetamide]
IC50 (ROCK2): 10.9 nM
IC50 (ROCK1): 97.2 nM

Cc1cc(C(=O)N[C@H](CN)c2ccccc2)ccc1-c1cn[nH]c1 [Example 256, N-[(15)-2-amino-1-phenylethyl]-3-methyl-4-(1H-pyrazol-4-yl)benzamide]
IC50 (ROCK2): 0.72 nM
IC50 (ROCK1): 3.38 nM

CC(C)(O)COc1cc(C(=O)N[C@H](CN)c2ccccc2)ccc1-c1cn[nH]c1 [Example 257, N-[(15)-2-amino-1-phenylethyl]-3-(2-hydroxy-2-methylpropoxy)-4-(1H-pyrazol-4-yl)benzamide]
IC50 (ROCK2): 52.8 nM
IC50 (ROCK1): 85.1 nM

NC[C@@H](NC(=O)c1ccc(-c2cn[nH]c2)c(OCCO)c1)c1ccccc1 [Example 258, N-[(15)-2-amino-1-phenylethyl]-3-(2-hydroxyethoxy)-4-(1H-pyrazol-4-yl)benzamide]
IC50 (ROCK2): 3.45 nM
IC50 (ROCK1): 8.92 nM

COc1cc(C(=O)N[C@H](CNC(C)=O)c2ccccc2)ccc1-c1cn[nH]c1 [Example 259, N-[(25)-2-{[3-methoxy-4-(1H-pyrazol-4-yl)phenyl] formamido}-2-phenylethyl] acetamide]
IC50 (ROCK2): 9.37 nM
IC50 (ROCK1): 23.6 nM

COc1cc(C(=O)N[C@H](CNS(C)(=O)=O)c2ccccc2)ccc1-c1cn[nH]c1 [Example 260, N-[(1S)-2-methane-sulfonamido-1-phenylethyl]-3-methoxy-4-(1H-pyrazol-4-yl)benzamide]
IC50 (ROCK2): 1.9 nM
IC50 (ROCK1): 6.62 nM

COc1cc(C(=O)N[C@H](CNS(=O)(=O)C2CC2)c2ccccc2)ccc1-c1cn[nH]c1 [Example 261, N-[(1S)-2-cyclopropane-sulfonamido-1-phenylethyl]-3-methoxy-4-(1H-pyrazol-4-yl)benzamide]
IC50 (ROCK2): 2.89 nM
IC50 (ROCK1): 11.3 nM

CCS(=O)(=O)NC[C@@H](NC(=O)c1ccc(-c2cn[nH]c2)c(OC)c1)c1ccccc1 [Example 262, N-[(1S)-2-ethane-sulfonamido-1-phenylethyl]-3-methoxy-4-(1H-pyrazol-4-yl)benzamide]
IC50 (ROCK2): 36 nM
IC50 (ROCK1): 55.2 nM

Cc1cc(C(=O)N[C@H](CN(C)C)c2ccccc2)ccc1-c1cn[nH]c1 [Example 263, N-[(1S)-2-(Dimethylamino)-1-phenylethyl]-3-methyl-4-(1H-pyrazol-4-yl)benzamide]
IC50 (ROCK2): 3.94 nM
IC50 (ROCK1): 6.45 nM

CC[C@@H](NC(=O)c1ccc(-c2cn[nH]c2)c(OC)c1)c1c(F)cccc1F [Example 264, N-[(1R)-1-(2,6-Difluorophenyl)propyl]-3-methoxy-4-(1H-pyrazol-4-yl)benzamide]
IC50 (ROCK2): 23.4 nM
IC50 (ROCK1): 77.3 nM

CCNC[C@@H](NC(=O)c1ccc(-c2cn[nH]c2)c(OC)c1)c1c(F)cccc1F [Example 265, N-[(1S)-1-(2,6-Difluorophenyl)-2-(ethylamino)ethyl]-3-methoxy-4-(1H-pyrazol-4-yl)benzamide]
IC50 (ROCK2): 1.29 nM
IC50 (ROCK1): 2.26 nM

COc1cc(C(=O)N[C@H](CNC2CC2)c2c(F)cccc2F)ccc1-c1cn[nH]c1 [Example 266, N-[(1S)-2-(Cyclopropylamino)-1-(2,6-difluorophenyl)ethyl]-3-methoxy-4-(1H-pyrazol-4-yl)benzamide]
IC50 (ROCK2): 4.53 nM
IC50 (ROCK1): 4.62 nM

COc1cc(C(=O)NCc2ccccc2C(C)C)ccc1-c1cn[nH]c1 [Example 267, 3-Methoxy-N-{[2-(propan-2-yl)phenyl]methyl}-4-(1H-pyrazol-4-yl)benzamide]
IC50 (ROCK2): 104 nM
IC50 (ROCK1): 204 nM

C[C@@H](NC(=O)c1ccc(-c2cn[nH]c2)c(CO)c1)c1ccc(F)cc1 [Example 271, N-[(1R)-1-(4-Fluorophenyl)ethyl]-3-(hydroxymethyl)-4-(1H-pyrazol-4-yl)benzamide]
IC50 (ROCK2): 75 nM
IC50 (ROCK1): 3450 nM

C[C@@H](NC(=O)c1ccc(-c2cn[nH]c2)c(CO)c1)c1ccccc1 [Example 272, 3-(hydroxymethyl)-N-[(1R)-1-phenylethyl]-4-(1H-pyrazol-4-yl)benzamide]
IC50 (ROCK2): 58.8 nM
IC50 (ROCK1): 284 nM

CC(O)c1cc(C(=O)N[C@H](C)c2ccccc2)ccc1-c1cn[nH]c1 (stereo partly drawn) [Example 273, 3-(1-hydroxyethyl)-N-[(1R)-1-phenylethyl]-4-(1H-pyrazol-4-yl)benzamide]
IC50 (ROCK2): 7.73 nM
IC50 (ROCK1): 50 nM

COC[C@@H](NC(=O)c1ccc(-c2cn[nH]c2)c(C(C)O)c1)c1ccccc1 (stereo partly drawn) [Example 274, 3-(1-hydroxyethyl)-N-[(1S)-2-methoxy-1-phenylethyl]-4-(1H-pyrazol-4-yl)benzamide]
IC50 (ROCK2): 263 nM
IC50 (ROCK1): 287 nM

CC(NC(=O)c1ccc(-c2cn[nH]c2)c(C=O)c1)c1ccccc1F (stereo not drawn) [Example 275, N-[1-(2-fluorophenyl)ethyl]-3-formyl-4-(1H-pyrazol-4-yl)benzamide]
IC50 (ROCK2): 1420 nM
IC50 (ROCK1): 983 nM

CC(NC(=O)c1ccc(-c2cn[nH]c2)c(C=O)c1)c1ccccc1F (stereo not drawn) [Example 276, N-[1-(2-fluorophenyl)ethyl]-3-formyl-4-(1H-pyrazol-4-yl)benzamide]
IC50 (ROCK2): 409 nM
IC50 (ROCK1): 509 nM

COC[C@@H](NC(=O)c1ccc(-c2cn[nH]c2)c(C(C)O)c1)c1ccccc1 (stereo partly drawn) [Example 277, 3-(1-hydroxyethyl)-N-[(1S)-2-methoxy-1-phenylethyl]-4-(1H-pyrazol-4-yl)benzamide]
IC50 (ROCK2): 44.2 nM
IC50 (ROCK1): 156 nM

CC(O)c1cc(C(=O)NC(C)c2ccccc2F)ccc1-c1cn[nH]c1 (stereo not drawn) [Example 278, N-[1-(2-fluorophenyl)ethyl]-3-(1-hydroxyethyl)-4-(1H-pyrazol-4-yl)benzamide]
IC50 (ROCK2): 1320 nM
IC50 (ROCK1): 1780 nM

CC(O)c1cc(C(=O)NC(C)c2ccccc2F)ccc1-c1cn[nH]c1 (stereo not drawn) [Example 279, N-[1-(2-fluorophenyl)ethyl]-3-(1-hydroxyethyl)-4-(1H-pyrazol-4-yl)benzamide]
IC50 (ROCK2): 15.7 nM
IC50 (ROCK1): 52.9 nM

CC(O)c1cc(C(=O)N[C@H](C)c2ccccc2)ccc1-c1cn[nH]c1 (stereo partly drawn) [Example 280, 3-(1-hydroxyethyl)-N-[(1R)-1-phenylethyl]-4-(1H-pyrazol-4-yl)benzamide]
IC50 (ROCK2): 443 nM
IC50 (ROCK1): > 2000 nM
